The structures appear in SMILES notation.

In data set [1] the test system is calcium and phosphur in blood. Put plainly: Experiment 11: blood calcium and phosphur concentration after sublingual rapidly soluble composition. In kind it is in vivo. Conditions: Beagle dog, tartaric acid 10 w/v % + S-570 2 w/v %, FIG. 8. The text has this: The results are shown in the accompanying FIG. 8.
For data set [2] the following is noted: Beagle dog, sublingual, tartaric acid 10 w/v % + S-570 2 w/v %, FIG. 8.
Another data set in a line: in vivo. The conditions noted are these: male, Beagle, dog, serum, 1 mg, Maximum blood concentration of human calcitonin in average (pg/ml), sublingual rapidly soluble composition. The procedure:
Each one of the test material was administered by a sublingual route to a male Beagle dog which fasted over-night, and the blood was collected at intervals (after 10, 20, 30, 45 and 60 minutes). After the serum was separated, the calcium concentration in serum was measured with Calcium C kit (manufactured by Wako Junyaku K. K., Japan) (n=3).
In the same manner as in Experiment 8, the test material was administered to the dog, and the blood was collected at intervals. After the serum was separated, the human calcitonin concentration in serum was measured by RIA.

Turning to `CC[C@H](C)[C@H](NC(=O)[C@H](C)NC(=O)[C@@H](NC(=O)[C@H](CCC(N)=O)NC(=O)[C@@H]1CCCN1C(=O)[C@H](Cc1ccccc1)NC(=O)[C@@H](NC(=O)[C@H](Cc1c[nH]cn1)NC(=O)[C@H](Cc1ccccc1)NC(=O)[C@H](CCCCN)NC(=O)[C@H](CC(N)=O)NC(=O)[C@H](Cc1ccccc1)NC(=O)[C@H](CC(=O)O)NC(=O)[C@H](CCC(N)=O)NC(=O)[C@@H](NC(=O)[C@H](Cc1ccc(O)cc1)NC(=O)[C@@H](NC(=O)CNC(=O)[C@H](CC(C)C)NC(=O)[C@H](CCSC)NC(=O)[C@@H]1CSSC[C@H](N)C(=O)NCC(=O)N[C@@H](CC(N)=O)C(=O)N[C@@H](CC(C)C)C(=O)N[C@@H](CO)C(=O)N[C@@H]([C@@H](C)O)C(=O)N1)[C@@H](C)O)[C@@H](C)O)[C@@H](C)O)[C@@H](C)O)C(=O)NCC(=O)N[C@H](C(=O)NCC(=O)N[C@@H](C)C(=O)N1CCC[C@H]1C(N)=O)C(C)C` [human calcitonin], the “concentration of calcium in blood” value in data set [1] is “lowered”. Moreover, the “concentration of phosphur in blood” value in data set [1] is on record as “lowered”. Besides, the “blood human calcitonin concentration” value in data set [2] was “increase”. The Cmax (in general, the peak of the concentration-time curve) in the data set “in vivo” (S-970 1.0 w/v %, citric acid 2.0 w/v %) is 0.086 ng/mL; in “in vivo” (S-970 2.5 w/v %, citric acid 5.0 w/v %), 0.191 ng/mL; in “in vivo” (S-970 5.0 w/v %, citric acid 10.0 w/v %), 1.12 ng/mL; in “in vivo” (S-970 10.0 w/v %, citric acid 20.0 w/v %), 1.65 ng/mL.
